Usually TGI stands for the concentration giving total growth inhibition. A higher TGI goes with lower sensitivity of the cells.

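Growth conditions: 96-well plates. Treatment: test compound, 48 hours, 5 concentrations. Analysis: linear interpolation between bracketing concentrations; unreached endpoints set to highest concentration. TGI is the concentration that stops growth completely.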

The source of these data is PubChem BioAssay (NCI).

Test systems include NCI-H460 lung; NCI/ADR-RES ovarian; HS 578T breast; SNB-19 CNS; SNB-75 CNS; OVCAR-4 ovarian; OVCAR-3 ovarian; HOP-62 NSCLC; CAKI-1 renal; ACHN renal.
Holding throughout (test): DTP human tumour cell line panel, 48 h

For `C=CCN1C(=O)C[C@H](Cc2ccccc2)NC(=O)C[C@H](Cc2ccccc2)N(CC=C)C(=O)C[C@H](Cc2ccccc2)NC(=O)C[C@@H]1Cc1ccccc1`, the TGI is above 100 µM in the experiment with NCI-H460 lung; above 100 µM in the experiment on NCI/ADR-RES ovarian; above 100 µM in the experiment on HS 578T breast; above 100 µM in the experiment on SNB-19 CNS; 50.1 µM in the experiment on SNB-75 CNS; 72 µM with OVCAR-4 ovarian. For the same compound, the TGI in the experiment on OVCAR-3 ovarian, with HOP-62 NSCLC and with CAKI-1 renal was above 100 µM throughout.

For the compound `Cc1ccc(N=Nc2c(O)ccc3ccccc23)c(C)c1`, the TGI with NCI/ADR-RES ovarian, in the experiment with HS 578T breast, in the experiment on SNB-19 CNS, with SNB-75 CNS, in the experiment with OVCAR-4 ovarian and with OVCAR-3 ovarian was above 100 µM each time. For the same compound, the TGI in the experiment on HOP-62 NSCLC and in the experiment with CAKI-1 renal was above 100 µM throughout.

For the compound `Cc1cc2ccccc2oc(=O)/c1=N\Nc1ccccc1`, the TGI is above 100 µM with NCI-H460 lung; above 100 µM in the experiment on NCI/ADR-RES ovarian; above 100 µM in the experiment with SNB-19 CNS; above 100 µM in the experiment on ACHN renal; 63.8 µM in the experiment with SNB-75 CNS; above 100 µM in the experiment with OVCAR-4 ovarian. Besides, the TGI in the experiment on OVCAR-3 ovarian was above 100 µM; in the experiment on HOP-62 NSCLC, 46.7 µM; in the experiment with CAKI-1 renal it was above 100 µM.

For `C#CC(O)/C=C/C(O)CCCC(O)CC#CC(O)C#CCCCCC(O)/C=C/CCCC(=O)CCCCCCCCCCCCCCCC(O)C(O)C#CC(=O)O` (stereo not drawn), the TGI in the experiment with NCI-H460 lung, with NCI/ADR-RES ovarian, with HS 578T breast, with SNB-19 CNS, with ACHN renal and in the experiment with SNB-75 CNS was above 25 µM throughout. The TGI with OVCAR-4 ovarian, in the experiment on HOP-62 NSCLC and in the experiment on CAKI-1 renal was above 25 µM throughout.

Take `O=C1OC2(CCCCC2)C(Oc2ccc(Cl)cc2)=C1F`: the TGI with NCI-H460 lung, with HS 578T breast, with SNB-19 CNS, with ACHN renal, in the experiment with SNB-75 CNS and with OVCAR-3 ovarian was above 100 µM each time. Moreover, the concentration for total growth inhibition (TGI) with HOP-62 NSCLC and in the experiment with CAKI-1 renal was above 100 µM each time.

In the case of `CCC1OC2(C)CC(C#N)(C#N)C1(C#N)C(=N)O2` (stereo not drawn), the total growth inhibition concentration (TGI) in the experiment on HS 578T breast, in the experiment with SNB-19 CNS, with ACHN renal, in the experiment with SNB-75 CNS, in the experiment with OVCAR-3 ovarian and in the experiment on CAKI-1 renal was above 100 µM in each case.

With `CC(C)(C)N=C1C(=O)C2(C)CCC1C2(C)C` (stereo not drawn), the TGI in the experiment on NCI-H460 lung, with NCI/ADR-RES ovarian, in the experiment on SNB-19 CNS, in the experiment with ACHN renal, in the experiment with OVCAR-4 ovarian and in the experiment on OVCAR-3 ovarian was above 100 µM each time. Moreover, the TGI in the experiment on HOP-62 NSCLC and with CAKI-1 renal was above 100 µM in each case.

Turning to `Clc1cc(Cl)nc(Nc2ccc3c(c2)CCC3)n1`, the TGI in the experiment on NCI-H460 lung, in the experiment on NCI/ADR-RES ovarian, with HS 578T breast, with SNB-19 CNS, with ACHN renal and with OVCAR-4 ovarian was above 100 µM throughout. Besides, the TGI in the experiment on OVCAR-3 ovarian is above 100 µM; in the experiment with CAKI-1 renal, 75.7 µM.

On to `CC1(C)Cc2ccccc2C(C)(Cl)C(=O)N1` (stereo not drawn), for which the TGI in the experiment with NCI-H460 lung, with NCI/ADR-RES ovarian, in the experiment with SNB-19 CNS, in the experiment on ACHN renal, in the experiment with OVCAR-4 ovarian and with OVCAR-3 ovarian was above 10 µM throughout. The TGI with HOP-62 NSCLC and in the experiment with CAKI-1 renal was above 10 µM each time.

`Oc1c(NCn2nc(CCCCCCCCc3nn(CNc4ccc5ccccc5c4O)c(=S)o3)oc2=S)ccc2ccccc12`: the TGI with NCI-H460 lung, in the experiment on NCI/ADR-RES ovarian, in the experiment with SNB-19 CNS, in the experiment with ACHN renal, in the experiment with SNB-75 CNS and in the experiment on OVCAR-4 ovarian was above 100 µM in each case. In addition, the TGI with HOP-62 NSCLC and with CAKI-1 renal was above 100 µM in each case.

With `CC(=O)OC1C2CCC3CC2C2(SCCS2)C31` (stereo not drawn), the concentration for total growth inhibition (TGI) with NCI-H460 lung, in the experiment on NCI/ADR-RES ovarian, in the experiment with HS 578T breast, in the experiment with SNB-19 CNS, with ACHN renal and in the experiment with OVCAR-4 ovarian was above 100 µM each time. Moreover, the total growth inhibition concentration (TGI) in the experiment with OVCAR-3 ovarian and in the experiment on HOP-62 NSCLC was above 100 µM in each case.

For `COc1c(NC(C)=O)c2ccccc2c2ccccc12`, the TGI in the experiment with NCI-H460 lung, in the experiment with NCI/ADR-RES ovarian, in the experiment with HS 578T breast, in the experiment on SNB-19 CNS, in the experiment on ACHN renal and in the experiment on OVCAR-4 ovarian was above 100 µM each time. Besides, the TGI in the experiment on OVCAR-3 ovarian and in the experiment on HOP-62 NSCLC was above 100 µM each time.

For the compound `C=CCCCN(C(=O)c1ccccc1)c1ccc(C(=O)OC)o1`, the TGI with NCI-H460 lung, in the experiment on NCI/ADR-RES ovarian, in the experiment with HS 578T breast, in the experiment with SNB-19 CNS, in the experiment with ACHN renal and with SNB-75 CNS was above 100 µM throughout. The TGI in the experiment on OVCAR-4 ovarian, in the experiment on HOP-62 NSCLC and in the experiment on CAKI-1 renal was above 100 µM each time.

As to `COc1ccc(/C=C/C(=O)c2cc(CN(C)C)c(O)c(CN(C)C)c2)cc1`, the TGI in the experiment with NCI-H460 lung was 49.3 µM; in the experiment with NCI/ADR-RES ovarian, above 100 µM; in the experiment with HS 578T breast it was above 100 µM; in the experiment on SNB-19 CNS, above 100 µM; in the experiment on ACHN renal, above 100 µM; in the experiment with SNB-75 CNS it was above 100 µM. Besides, the total growth inhibition concentration (TGI) was 56 µM with OVCAR-3 ovarian, 56.1 µM in the experiment on HOP-62 NSCLC and above 100 µM in the experiment on CAKI-1 renal.

Take `Cc1c2oc(=O)c(C#N)cc2c2ccccn12`: the TGI in the experiment with NCI-H460 lung, with NCI/ADR-RES ovarian, in the experiment on HS 578T breast, in the experiment on SNB-19 CNS, in the experiment with ACHN renal and in the experiment on SNB-75 CNS was above 100 µM each time. Further, the TGI in the experiment with OVCAR-4 ovarian is above 100 µM; in the experiment on OVCAR-3 ovarian, 69.5 µM; in the experiment on CAKI-1 renal it was above 100 µM.

Turning to `COC(=O)CCCc1nc2ccccc2nc1N=Nc1ccccc1`, the TGI is above 100 µM in the experiment with NCI-H460 lung; 57.1 µM in the experiment on NCI/ADR-RES ovarian; above 100 µM with SNB-19 CNS; above 100 µM in the experiment on ACHN renal; above 100 µM in the experiment on SNB-75 CNS; above 100 µM in the experiment with OVCAR-4 ovarian. Moreover, the TGI in the experiment with OVCAR-3 ovarian, in the experiment with HOP-62 NSCLC and with CAKI-1 renal was above 100 µM each time.
